Consider eleven molecules from ChEMBL document CHEMBL4354808, “Drugs for the Treatment of Zika Virus Infection” (J Med Chem, 2020).

Non-standard residues stand in square brackets, D forms with d. Residues, ends and D or L forms follow the SMILES beside them. *: point of attachment. Pro(4R-Me) = C[C@H]1CN[C@H](C(=O)O)C1; Oleoyl = CCCCCCCC/C=C\CCCCCCCC(=O)*; hSer = N[C@@H](CCO)C(=O)O Bounds are passed on as bounds.

Series [1] has as its system Zika virus. The series can be described thus: Antiviral activity against Zika virus H/PAN/2016/BEI-259634 infected in human NSC by CellTiter-Glo assay. Format: functional, organism-based.
For series [2], the system named is Zika virus. The series can be described thus: Antiviral activity against Zika virus infected in African green monkey Vero cells after 72 hrs by DAPI-staining based assay. The format is functional, organism-based.
Series [3] is described as follows: Cytotoxicity against African green monkey Vero cells. The format is cell-based. The conditions noted are these: chlorocebus sabaeus.
A short description of series [4]: Cytotoxicity against human NSC. The conditions noted are these: NSC cells. The format is cell-based.
Series [5] in a line: Activation of AMPK in African green monkey Vero cells infected with Zika virus PA259459 assessed as antiviral activity measured 24 hrs post infection by plaque assay. The conditions noted are these: Chlorocebus aethiops. Format: cell-based.
Series [6] is described as follows: Inhibition of Protein E in Zika virus infected in African green monkey Vero cells assessed as antiviral activity preincubated for 1 hr followed by viral infection and measured 24 hr post infection by plaque assay. Format: cell-based.
Series [7] is described as follows: Inhibition of Protein E in Zika virus SZ01 infected in BHK21 cells assessed as antiviral activity after 12 hrs by CCK8 assay. The format is cell-based. Conditions: SZ01, BHK-21, 12 h. Background: Formazan colour is commonly taken as a measure of viable cells.
A short description of series [8]: Cytotoxicity against human HuH7 cells after 24 hrs by CCK8 assay. The format is cell-based. Conditions: Huh-7 cells.
The nature of series [9]: Cytotoxicity against BHK21 cells after 24 hrs by CCK8 assay. Format: cell-based, Mesocricetus auratus. The conditions noted are these: hamster, BHK-21 cells.
Series [10] is described as follows: Inhibition of Protein E in Zika virus MR766 infected in BHK21 cells assessed as antiviral activity after 12 hrs by CCK8 assay. Format: cell-based. Conditions: MR766, BHK-21, 12 h.
A short description of series [11]: Cytotoxicity against African green monkey Vero cells after 24 hrs by CCK8 assay. Format: cell-based. The conditions noted are these: chlorocebus sabaeus.
Series [12] in a line: Inhibition of Protein E in Zika virus FLR infected in BHK21 cells assessed as antiviral activity after 12 hrs by CCK8 assay. The format is cell-based. Conditions: BHK-21, 12 h.
The subject of series [13] is Zika virus. The series can be described thus: Antiviral activity against Zika virus infected in human A549 cells. The format is functional, organism-based.
Series [14] in a line: Cytotoxicity against human A549 cells. Format: cell-based.
Series [15] can be described thus: Cytotoxicity against African green monkey Vero E6 cells measured up to 24 to 72 hrs by MTT assay. Conditions: chlorocebus sabaeus. The format is cell-based, Vero C1008.
The subject of series [16] is Zika virus. Kind of series: Antiviral activity against Zika virus infected in African green monkey Vero E6 cells assessed as reduction in virus infectivity preincubated with virus for 1 hr followed by cell infection and measured after 96 hrs by crystal violet staining based assay. The format is functional, organism-based. The conditions noted are these: Vero C1008.

Series [17] relates to Zika virus. The series can be described thus: Antiviral activity against Zika virus infected in African green monkey Vero E6 cells assessed as reduction in virus infectivity at 160 uM preincubated with virus for 1 hr followed by cell infection and measured after 96 hrs by crystal violet staining based assay relative to control. The conditions noted are these: Vero C1008. The format is functional.

Series [18] deals with Zika virus. Kind of series: Antiviral activity against Zika virus MR 766 infected in human NSC measured 5 days post infection by CellTiter Blue assay. The format is functional, organism-based. Conditions: MR 766, 120 h.
The nature of series [19]: Cytotoxicity against HBMEC after 5 days by CellTiter Blue assay. The conditions noted are these: human. (In general: Alamar Blue is a resazurin reagent that responds to reducing activity.)
The nature of series [20]: Cytotoxicity against human NSC after 5 days by CellTiter Blue assay. The format is cell-based. Conditions: NSC cells.
A short description of series [21]: Cytotoxicity against African green monkey Vero cells after 5 days by CellTiter Blue assay. Format: cell-based. Conditions: chlorocebus sabaeus.
Series [22] has as its system Zika virus. The series can be described thus: Antiviral activity against Zika virus MR 766 infected in African green monkey Vero cells measured 5 days post infection by CellTiter Blue assay. Format: functional, organism-based. The conditions noted are these: MR 766, Vero, 120 h.
For series [23], the system named is Zika virus. The series can be described thus: Antiviral activity against Zika virus MR 766 infected in HBMEC measured 5 days post infection by CellTiter Blue assay. The format is functional, organism-based. Conditions: MR 766, 120 h.
The test system of series [24] is Zika virus. The series can be described thus: Antiviral activity against Zika virus infected in African green monkey Vero E6 cells assessed as reduction in virus infectivity at 40 uM preincubated with virus for 1 hr followed by cell infection and measured after 96 hrs by crystal violet staining based assay relative to control. The format is functional. The conditions noted are these: Vero C1008.

A short description of series [25]: Cytotoxicity against human HuH7 cells by MTS assay. The conditions noted are these: Huh-7 cells. The format is cell-based.
The test system of series [26] is Zika virus. Kind of series: (§1) Inhibition of IMPDH in Zika virus MR766 infected in human HuH7 cells assessed as antiviral activity by measuring reduction in viral replication preincubated for 12 hrs followed by viral infection and measured day 2 post infection by qRT-PCR method. Format: cell-based.
The nature of series [27]: as §1. Format: cell-based. Conditions: MR766, Huh-7.
A short description of series [28]: Inhibition of DHFR in Zika virus Mex2-81 infected in HBMEC assessed as antiviral activity incubated for 24 hrs.
The nature of series [29]: Cytotoxicity against HBMEC after 24 hrs by resazurin-dye based Alamar blue assay. The conditions noted are these: human.
Series [30] can be described thus: Cytotoxicity against human JEG3 cells by alamarBlue assay. The format is cell-based. Conditions: JEG-3 cells.
Series [31] relates to Zika virus. The series can be described thus: Antiviral activity against Zika virus PRVABC59 Puerto Rico infected in human JEG3 cells after 24 hrs by plaque assay. Conditions: JEG-3, 24 h. Format: functional, organism-based.

Broadly, the EC50 is the concentration at which the effect is half-maximal. One may read the CC50 as the concentration that lowers cell viability or growth by half. For the molecule `O=C(c1cc(Cl)cc(Cl)c1O)c1[nH]c(F)c(Br)c1Br`, the EC50 stood at 8.56 µM in series [1] and 5.95 µM in series [2]. In addition, the CC50 in [3] and in series [4] was above 100 µM each time.
With `O=C(O)c1c[nH]c2cc(Cl)c(-c3ccc(C4(O)CCC4)cc3)cc12`, the EC50 in [5] is 2.6 µM.
For `CC[C@H](C)[C@H](NC(=O)[C@H](CO)NC(=O)CNC(=O)[C@H](Cc1ccccc1)NC(=O)[C@H](CC(=O)O)NC(=O)[C@H](Cc1c[nH]c2ccccc12)NC(=O)[C@H](C)N)C(=O)NCC(=O)NCC(=O)N[C@H](C(=O)N[C@@H](Cc1ccccc1)C(=O)N[C@@H](CC(N)=O)C(=O)N[C@@H](CO)C(=O)N[C@H](C(=O)NCC(=O)N[C@@H](CCCCN)C(=O)N[C@@H](C)C(=O)N[C@H](C(=O)N[C@@H](Cc1cnc[nH]1)C(=O)N[C@@H](CCC(N)=O)C(=O)N[C@H](C(=O)N[C@@H](Cc1ccccc1)C(=O)O)C(C)C)C(C)C)[C@@H](C)CC)C(C)C`, the EC50 in series [6] was determined as 3.27 µM. In series [3], the CC50 is above 10 µM.
Take `CC[C@H](C)[C@H](NC(=O)CNC(=O)[C@H](CCCCN)NC(=O)CNC(=O)[C@H](CC(C)C)NC(=O)[C@H](CO)NC(=O)[C@H](CC(N)=O)NC(=O)[C@H](CC(C)C)NC(=O)[C@H](C)NC(=O)CNC(=O)CNC(=O)[C@@H](NC(=O)[C@H](CO)NC(=O)CNC(=O)[C@H](Cc1ccccc1)NC(=O)[C@H](CC(=O)O)NC(=O)[C@H](Cc1c[nH]c2ccccc12)NC(=O)[C@H](C)NC(=O)[C@@H](NC(=O)[C@H](CC(=O)O)NC(=O)CNC(=O)[C@H](CC(C)C)NC(=O)[C@@H](NC(=O)[C@H](C)NC(=O)[C@@H](N)CCSC)C(C)C)[C@@H](C)O)C(C)C)C(=O)N[C@@H](Cc1cnc[nH]1)C(=O)N[C@@H](CCC(N)=O)C(=O)N[C@H](C(=O)N[C@@H](Cc1ccccc1)C(=O)NCC(=O)N[C@@H](C)C(=O)N[C@@H](C)C(=O)N[C@@H](Cc1ccccc1)C(=O)O)[C@@H](C)CC` (H-MAVLGDTAWDFGSVGGALNSLGKGIHQIFGAAF-OH): the EC50 in series [7], in series [10] and in series [12] was 1.75 to 13.9 µM in each case. The CC50 at 24 h in [8], in series [9] and in [11] was above 50 µM each time.
In the case of `CCCCCCCC/C=C\CCCCCCCC(=O)N[C@H](C(=O)N1C[C@H](C)C[C@H]1C(=O)N[C@H](C(=O)N[C@@H](CCO)C(=O)N[C@@H](C)C=O)C(C)C)[C@@H](C)O` (Oleoyl-T[Pro(4R-Me)]V[hSer]A-aldehyde), the EC50 in [13] was 0.15 µM. Moreover, the CC50 in series [14] was 1.65 µM.
A word on the IC50: it is the point on the concentration scale where inhibition reaches its midpoint. Usually inhibition stands for how much of the control response was suppressed. Take `COc1ccc2cc3[n+](cc2c1OC)CCc1cc2c(cc1-3)OCO2` [BERBERINE]: the midpoint of cytotoxicity in series [15], the CC50, lay at 221 µM. The IC50 in series [16] was 39.1 µM. Also, in [17], the inhibition at 160 µM amounted to 77.6%.
In the case of `CCN(CC)CCCC(C)Nc1ccnc2cc(Cl)ccc12` (centres undefined) [CHLOROQUINE], the EC50 in [18], in series [22] and in [23] was 9.82 to 14.2 µM throughout. The CC50 at 120 h in series [19], in series [20] and in [21] was 95 to 135 µM throughout.
For `Cc1cc(O)c2c(c1)C(=O)c1cc(O)cc(O)c1C2=O` [EMODIN], the inhibition at 40 µM in series [24] came to 88.3%. Besides, it took 68.6 µM to reach half-maximal cytotoxicity in series [15] (CC50). In series [16], the 50% inhibitory concentration (IC50) turned out to be 3.2 µM.
The EC90 is the concentration at which the effect reaches the 90% level. In series [25], `COc1cc(NC(=O)Nc2cccc(CNC(=O)O[C@H]3CCOC3)c2)ccc1-c1cnco1` [MERIMEPODIB] had a CC50 above 10 µM. Also, the concentration for an effect of 90% (EC90) in [26] stood at 1 µM. Also, the EC50 in series [27] was 0.6 µM.
On to `CN(Cc1cnc2nc(N)nc(N)c2n1)c1ccc(C(=O)N[C@@H](CCC(=O)O)C(=O)O)cc1` [METHOTREXATE], for which the concentration giving a half-maximal response (EC50) in [28] amounted to 0.28 µM. For the same molecule, in series [29], the CC50 at 24 h was above 10 µM.
`O=C1C[C@@H](c2ccccc2)Oc2cc(O)cc(O)c21` [PINOCEMBRIN] came in with a CC50 in series [30] of 251 µM. In series [31], this molecule came in with a half-maximal effective concentration (EC50) of 17.4 µM.
